Earlier results, collected in patent publication EP0837672B9, “PREPARATIONS AND METHODS FOR THE TREATMENT OF T CELL MEDIATED DISEASES” (YEDA RESEARCH AND DEVELOPMENT CO. LTD., priority 1995, dated 2005).

Test system: mice
Settings: administered to mice sc in an oil vehicle such as incomplete Freund's adjuvant (IFA)

Substance	peptide therapy for treatment of IDDM
p277: peptide corresponding to positions 437-460 of the human hsp 60 sequence (VLGGGCALLRCIPALDSLTPANED; UniProt P10809 437-460, looked up, fragment)	effective
p32: peptide corresponding to positions 466-485 of the human hsp60 sequence (EIIKRTLKIPAMTIAKNAGV; UniProt P10809 466-485, looked up, fragment)	effective
p12: peptide corresponding to positions 166-185 of the human hsp60 sequence (EEIAQVATISANGDKEIGNI; UniProt P10809 166-185, looked up, fragment)	effective
